From PubChem BioAssay AID2060496 (Molecular Pharmacology Branch, DTP, NCI, 2025)
Values belong to the compound of their own block, whether it stands above or below them.

System: 276233-004-R-J1-PDC complex spheroid viability
Experiment: Anticancer human tumor 276233-004-R-J1-PDC patient-derived colon adenocarcinoma cell line growth inhibition [GQUAD]
Conditions: for IC50: curve of first compound; for viability, T/C: stronger effect = lower value
How it was run: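 Tumor cells were grown as complex spheroids with HUVEC endothelial cells and mesenchymal stem cells as stroma. G-quadruplex stabilizers were combined with targeted agents over half-log dilutions from near the clinical Cmax, or from 10 microM.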

[1] = second compound 0.0316 µM, first compound 0.0316 µM
[2] = second compound 0.0316 µM, first compound 0.1 µM
[3] = second compound 0.0316 µM, first compound 0.316 µM
[4] = second compound 0.0316 µM, first compound 1 µM
[5] = second compound 0.0316 µM, first compound 3.16 µM
[6] = second compound 0.0316 µM, first compound 10 µM
[7] = second compound 0.1 µM, first compound 0.0316 µM
[8] = second compound 0.1 µM, first compound 0.1 µM
[9] = second compound 0.1 µM, first compound 0.316 µM
[10] = second compound 0.1 µM, first compound 1 µM
[11] = second compound 0.1 µM, first compound 3.16 µM
[12] = second compound 0.1 µM, first compound 10 µM
[13] = second compound 0.316 µM, first compound 0.0316 µM
[14] = second compound 0.316 µM, first compound 0.1 µM
[15] = second compound 0.316 µM, first compound 0.316 µM
[16] = second compound 0.316 µM, first compound 1 µM
[17] = second compound 0.316 µM, first compound 3.16 µM
[18] = second compound 0.316 µM, first compound 10 µM
[19] = second compound 1 µM, first compound 0.0316 µM
[20] = second compound 1 µM, first compound 0.1 µM
[21] = second compound 1 µM, first compound 0.316 µM
[22] = second compound 1 µM, first compound 1 µM
[23] = second compound 1 µM, first compound 3.16 µM
[24] = second compound 1 µM, first compound 10 µM
[25] = second compound 3.16 µM, first compound 0.0316 µM
[26] = second compound 3.16 µM, first compound 0.1 µM
[27] = second compound 3.16 µM, first compound 0.316 µM
[28] = second compound 3.16 µM, first compound 1 µM
[29] = second compound 3.16 µM, first compound 3.16 µM
[30] = second compound 3.16 µM, first compound 10 µM
[31] = second compound 10 µM, first compound 0.0316 µM
[32] = second compound 10 µM, first compound 0.1 µM
[33] = second compound 10 µM, first compound 0.316 µM
[34] = second compound 10 µM, first compound 1 µM
[35] = second compound 10 µM, first compound 3.16 µM
[36] = second compound 10 µM, first compound 10 µM
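Further: spheroids exposed to drugs for seven days.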
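Wherever viability, T/C is given: 100% = DMSO vehicle control viability.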

IC50 (second compound 0.0316 µM): 8.71 µM
IC50 (second compound 0.1 µM): > 10 µM
IC50 (second compound 0.316 µM): 4.4 µM
IC50 (second compound 1 µM): 2.53 µM
IC50 (second compound 3.16 µM): 1.77 µM
IC50 (second compound 10 µM): 0.709 µM
SMILES: COc1ccc([C@@H](O)c2cc(-c3ncnc4cc(N5CCOCC5)ccc34)c(F)cc2Cl)nn1 + Cc1cnc(CNC(=O)c2c(=O)c3ccc(N4CCCN(C)CC4)nc3n3c2sc2ccccc23)cn1
viability, T/C [1]: 75.2%
viability, T/C [2]: 81.5%
viability, T/C [3]: 79.3%
viability, T/C [4]: 68.8%
viability, T/C [5]: 60.6%
viability, T/C [6]: 48.4%
viability, T/C [7]: 78.7%
viability, T/C [8]: 73.9%
viability, T/C [9]: 70.2%
viability, T/C [10]: 73.8%
viability, T/C [11]: 69.6%
viability, T/C [12]: 55.1%
viability, T/C [13]: 74.4%
viability, T/C [14]: 87.7%
viability, T/C [15]: 83.9%
viability, T/C [16]: 71%
viability, T/C [17]: 55.1%
viability, T/C [18]: 39.3%
viability, T/C [19]: 73.6%
viability, T/C [20]: 77.9%
viability, T/C [21]: 75.2%
viability, T/C [22]: 63%
viability, T/C [23]: 47.4%
viability, T/C [24]: 33.7%
viability, T/C [25]: 69.2%
viability, T/C [26]: 69.3%
viability, T/C [27]: 70%
viability, T/C [28]: 56.2%
viability, T/C [29]: 43.1%
viability, T/C [30]: 34%
viability, T/C [31]: 65%
viability, T/C [32]: 58.1%
viability, T/C [33]: 70%
viability, T/C [34]: 43.9%
viability, T/C [35]: 43.2%
viability, T/C [36]: 30.9%

SMILES: COc1ccc([C@@H](O)c2cc(-c3ncnc4cc(N5CCOCC5)ccc34)c(F)cc2Cl)nn1 + CN(C)c1ccc(Nc2c3ccc(NC(=O)CCN4CCCC4)cc3nc3cc(NC(=O)CCN4CCCC4)ccc23)cc1
IC50 (second compound 0.0316 µM): > 10 µM
IC50 (second compound 0.1 µM): 5.54 µM
IC50 (second compound 0.316 µM): 0.612 µM
IC50 (second compound 1 µM): 3.46 µM
IC50 (second compound 3.16 µM): 0.127 µM
IC50 (second compound 10 µM): 0.134 µM
viability, T/C [1]: 88.8%
viability, T/C [2]: 94.6%
viability, T/C [3]: 87.7%
viability, T/C [4]: 74.5%
viability, T/C [5]: 61%
viability, T/C [6]: 54.2%
viability, T/C [7]: 79.4%
viability, T/C [8]: 79.3%
viability, T/C [9]: 76.3%
viability, T/C [10]: 70.2%
viability, T/C [11]: 52.9%
viability, T/C [12]: 46.8%
viability, T/C [13]: 78%
viability, T/C [14]: 63.7%
viability, T/C [15]: 52%
viability, T/C [16]: 49.1%
viability, T/C [17]: 43.7%
viability, T/C [18]: 39.1%
viability, T/C [19]: 56.5%
viability, T/C [20]: 49.5%
viability, T/C [21]: 62.5%
viability, T/C [22]: 48.8%
viability, T/C [23]: 52.4%
viability, T/C [24]: 38.2%
viability, T/C [25]: 47.4%
viability, T/C [26]: 54.2%
viability, T/C [27]: 47.6%
viability, T/C [28]: 42.2%
viability, T/C [29]: 39%
viability, T/C [30]: 40.1%
viability, T/C [31]: 48.3%
viability, T/C [32]: 56.2%
viability, T/C [33]: 37.6%
viability, T/C [34]: 41.8%
viability, T/C [35]: 46.8%
viability, T/C [36]: 47.5%

IC50 (second compound 0.0316 µM): > 10 µM
IC50 (second compound 0.1 µM): > 10 µM
IC50 (second compound 0.316 µM): 3.7 µM
IC50 (second compound 1 µM): 4.44 µM
IC50 (second compound 3.16 µM): 3.32 µM
IC50 (second compound 10 µM): 1.07 µM
SMILES: CC1COCCN1c1cc(-c2ccnn2C)c2ccnc(-c3ccn[nH]3)c2n1 (stereo not drawn) + Cc1cnc(CNC(=O)c2c(=O)c3ccc(N4CCCN(C)CC4)nc3n3c2sc2ccccc23)cn1
viability, T/C [1]: 99.5%
viability, T/C [2]: 57.5%
viability, T/C [3]: 78.7%
viability, T/C [4]: 56%
viability, T/C [5]: 63.2%
viability, T/C [6]: 42.5%
viability, T/C [7]: 79.6%
viability, T/C [8]: 86.5%
viability, T/C [9]: 63.2%
viability, T/C [10]: 67.2%
viability, T/C [11]: 56.6%
viability, T/C [12]: 55.1%
viability, T/C [13]: 73.1%
viability, T/C [14]: 67.1%
viability, T/C [15]: 65.9%
viability, T/C [16]: 58.9%
viability, T/C [17]: 51.3%
viability, T/C [18]: 41.8%
viability, T/C [19]: 68.9%
viability, T/C [20]: 64.7%
viability, T/C [21]: 67.4%
viability, T/C [22]: 58.4%
viability, T/C [23]: 52.3%
viability, T/C [24]: 43.5%
viability, T/C [25]: 63.1%
viability, T/C [26]: 57.3%
viability, T/C [27]: 62%
viability, T/C [28]: 55.8%
viability, T/C [29]: 49.7%
viability, T/C [30]: 41.1%
viability, T/C [31]: 53.4%
viability, T/C [32]: 50.6%
viability, T/C [33]: 51%
viability, T/C [34]: 47.2%
viability, T/C [35]: 49.2%
viability, T/C [36]: 38.5%

SMILES: CC1COCCN1c1cc(C2(S(C)(=N)=O)CC2)nc(-c2ccnc3[nH]ccc23)n1 (stereo not drawn) + CN(C)c1ccc(Nc2c3ccc(NC(=O)CCN4CCCC4)cc3nc3cc(NC(=O)CCN4CCCC4)ccc23)cc1
IC50 (second compound 0.0316 µM): > 10 µM
IC50 (second compound 0.1 µM): > 10 µM
IC50 (second compound 0.316 µM): 4.01 µM
IC50 (second compound 1 µM): 1.96 µM
IC50 (second compound 3.16 µM): 3.16 µM
IC50 (second compound 10 µM): < 0.0316 µM
viability, T/C [1]: 97.8%
viability, T/C [2]: 91%
viability, T/C [3]: 89.8%
viability, T/C [4]: 81.3%
viability, T/C [5]: 66.7%
viability, T/C [6]: 67.4%
viability, T/C [7]: 95.1%
viability, T/C [8]: 84.5%
viability, T/C [9]: 75.2%
viability, T/C [10]: 65.5%
viability, T/C [11]: 74.6%
viability, T/C [12]: 66.9%
viability, T/C [13]: 74.5%
viability, T/C [14]: 75.7%
viability, T/C [15]: 47.8%
viability, T/C [16]: 64%
viability, T/C [17]: 59%
viability, T/C [18]: 39.8%
viability, T/C [19]: 65.8%
viability, T/C [20]: 47.6%
viability, T/C [21]: 59.5%
viability, T/C [22]: 52.9%
viability, T/C [23]: 50.1%
viability, T/C [24]: 43.9%
viability, T/C [25]: 58.4%
viability, T/C [26]: 61.5%
viability, T/C [27]: 63.1%
viability, T/C [28]: 46.4%
viability, T/C [29]: 52.7%
viability, T/C [30]: 55.6%
viability, T/C [31]: 36.8%
viability, T/C [32]: 45.5%
viability, T/C [33]: 33.7%
viability, T/C [34]: 52.5%
viability, T/C [35]: 37.2%
viability, T/C [36]: 71.4%
